ChEMBL document CHEMBL1201862, “PubChem BioAssay data set” (2004)
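These data come from cells grown in 96-well plates and exposed to compound for 48 hours at five concentrations. GI50 is the concentration that inhibits growth by half.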 Active and inactive are the calls of the source. No stated cut-off is given here; in the data, active = GI50 up to about 1.1 µM and inactive = higher.

What was measured:
Test in all cases: growth of human tumour cells (NCI), 48 h
[1] = tested on: U-251
[2] = tested on: XF498
[3] = tested on: K562
[4] = tested on: HOP-92
[5] = tested on: NCI/ADR-RES
[6] = tested on: RXF 393
[7] = tested on: Malme-3M
[8] = tested on: KM-20L2
[9] = tested on: SNB-75
[10] = tested on: M19-MEL
[11] = tested on: A498
[12] = tested on: HCC 2998
[13] = tested on: HOP-18
[14] = tested on: MCF7
[15] = tested on: NCI-H226
[16] = tested on: COLO 205
[17] = tested on: UACC-257
[18] = tested on: SK-MEL-5
[19] = tested on: M14
[20] = tested on: SR

Row | Structure (SMILES) | GI50 [1] | GI50 [2] | GI50 [3] | GI50 [4] | GI50 [5] | GI50 [6] | GI50 [7] | GI50 [8] | GI50 [9] | GI50 [10] | GI50 [11] | GI50 [12] | GI50 [13] | GI50 [14] | GI50 [15] | GI50 [16] | GI50 [17] | GI50 [18] | GI50 [19] | GI50 [20]
1 | O=C(O)CCC(NC(=O)c1ccc(Nc2nc3ccc(C(F)(F)F)cc3nc2-c2ccccc2)cc1)C(=O)O (stereo not given) | > 83 µM (inactive) | 98.4 µM (inactive) | 29.6 µM (inactive) | > 46.6 µM (inactive) | > 100 µM (inactive) | > 100 µM (inactive) | > 100 µM (inactive) | > 100 µM (inactive) | > 100 µM (inactive) | > 100 µM (inactive) | > 100 µM (inactive) | > 100 µM (inactive) | 3.37 µM (inactive) | > 100 µM (inactive) | > 100 µM (inactive) | > 100 µM (inactive) | > 100 µM (inactive) | > 100 µM (inactive) |  | 
2 | S=C1NN=C2C(=C3CCCC4C5CCCCC5N2C34)N1 (stereo not given) |  |  | 38 µM (inactive) | > 100 µM (inactive) | > 100 µM (inactive) |  | > 100 µM (inactive) |  |  |  |  |  |  | 44.5 µM (inactive) | 0.678 µM (active) | 33 µM (inactive) | > 100 µM (inactive) | 82.6 µM (inactive) | > 100 µM (inactive) | 83.4 µM (inactive)
3 | CCC12CCC[C@@]13C=C[C@H](O3)C(C)(C)C2=O (stereo not given in full) | > 100 µM (inactive) |  | > 100 µM (inactive) |  |  | > 100 µM (inactive) | > 100 µM (inactive) | > 100 µM (inactive) | > 100 µM (inactive) | > 100 µM (inactive) |  | > 100 µM (inactive) | > 100 µM (inactive) |  | > 100 µM (inactive) |  | > 100 µM (inactive) | > 100 µM (inactive) | > 100 µM (inactive) | > 100 µM (inactive)
4 | COc1ccc(C2C(C#N)=C(O)NC(O)=C2C#N)cc1OC | > 100 µM (inactive) | > 100 µM (inactive) |  | > 100 µM (inactive) |  |  | > 100 µM (inactive) | > 100 µM (inactive) | > 100 µM (inactive) | > 100 µM (inactive) | > 100 µM (inactive) | > 100 µM (inactive) | > 100 µM (inactive) |  |  | > 100 µM (inactive) |  | > 100 µM (inactive) | > 100 µM (inactive) | > 100 µM (inactive)
5 | CN(C)CCNCc1c2ccccc2c(CNCCN(C)C)c2ccccc12 | 20.9 µM (inactive) | 58.2 µM (inactive) | 17.8 µM (inactive) | 10.4 µM (inactive) | > 100 µM (inactive) | 20.6 µM (inactive) | 18.4 µM (inactive) | 7.29 µM (inactive) | 43.6 µM (inactive) | 24.5 µM (inactive) | 27.1 µM (inactive) | 10.7 µM (inactive) | 44.4 µM (inactive) | 26 µM (inactive) | 19.5 µM (inactive) | 9.53 µM (inactive) | 18 µM (inactive) | 12.8 µM (inactive) |  | 
6 | Nc1nc(=O)n(C2OC(CO)C(O)C2O)cc1F (stereo not given) | 3.72 µM (inactive) | > 100 µM (inactive) | 0.506 µM (active) | 0.0755 µM (active) | 0.76 µM (active) | 43.5 µM (inactive) |  | 2.29 µM (inactive) |  | 0.731 µM (active) | > 100 µM (inactive) | > 100 µM (inactive) | 2.44 µM (inactive) | 3.99 µM (inactive) | > 100 µM (inactive) | 79.4 µM (inactive) | 3.78 µM (inactive) |  |  | 
